# Results published in patent EP2805715A1, “Inhibitors of RNR2 subunit of ribonucleotide reductase to impair reverse transcription of hiv related lentiviruses in macrophages and use thereof for the treatment of hiv infected patients” (INSTITUT PASTEUR, priority 2013, dated 2014).
# Counter-ions that a name gives are not always drawn. Like-named read-outs stand apart in the source and are kept apart here.
# Tests used:
# HIV-1/VSV-G = type: cell-based
# MDM = MDM viability; type: cell-based, human
Structure (SMILES),"HIV-1 replication, fold changes of luciferase activity with respect to mock treated cells (HIV-1/VSV-G)",MDM viability (MDM; at the concentrations used in the assays (data not shown)),MDM viability (MDM)
"NC(=O)NO [HU, Hydroxyurea]",Dose dependent inhibition,not affected,–
"CC(=O)N(O)CCCCCNC(=O)CCC(=O)N(O)CCCCCNC(=O)CCC(=O)N(O)CCCCCN [DFO, Deferoxamine mesylate]",Dose dependent inhibition,–,not affected
